Holding throughout (assay): NCI-60 cell line screen, 48 h
Experiment [1] deals with 786-0.
Experiment [2] deals with OVCAR-5.
Experiment [3] relates to IGROV-1.
Experiment [4] deals with HT-29.
Experiment [5] deals with OVCAR-3.
The subject of experiment [6] is DU-145.
The subject of experiment [7] is CAKI-1.
In experiment [8] the test system is CCRF-CEM.
In experiment [9] the test system is Hs-578T.
The subject of experiment [10] is RPMI-8226.
The subject of experiment [11] is U-251.
Experiment [12] relates to HOP-92.
Experiment [13] relates to SNB-75.
For experiment [14], the system named is HCT-116.
Experiment [15] has as its system UACC-62.
Experiment [16] has as its system T47D.
Experiment [17] deals with SK-MEL-2.

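Where inhibition never reached the appropriate level, the endpoint shown equals the highest concentration tested. Otherwise, values were interpolated linearly from a five-concentration, 48-hour dose response in 96-well plates. Here, GI50 denotes the concentration required for 50% inhibition of growth.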 Activity calls are given as the source filed them. Cut-off read from the data, not from the text of the source: active = GI50 up to about 1.1 µM and inactive = higher. Residues, ends and D or L forms follow the SMILES beside them. Groups on a side chain read outwards from the residue. *: point of attachment. Cbz = O=C(OCc1ccccc1)*; Boc = CC(C)(C)OC(=O)*

With `O=C(Nc1nc(C23CC4CC(CC(C4)C2)C3)cs1)c1c(O)c2ccccc2[nH]c1=O`, the GI50 in experiment [1], in [2], in experiment [3], in [4], in [5] and in [6] was > 100 µM (inactive) in each case. The GI50 in experiment [7], in experiment [8], in experiment [9], in [10], in experiment [11] and in experiment [12] was > 100 µM (inactive) in each case. Also, the GI50 in experiment [13] is > 10 µM (inactive); in experiment [14] it was > 100 µM (inactive).
Regarding `Cc1cc(C)c2c(O)cc(-c3cccc(Cl)c3)nc2n1`, the GI50 in experiment [15] was 0.0681 µM (active); in experiment [1], 0.261 µM (active); in [3], 0.2 µM (active); in experiment [4], 0.122 µM (active); in experiment [5] it was 0.106 µM (active); in experiment [6] it was 0.5 µM (active). The GI50 in experiment [8] is 0.229 µM (active); in experiment [9], 0.252 µM (active); in [10], 0.148 µM (active); in experiment [11], 0.206 µM (active); in [12], 21.9 µM (inactive); in experiment [13], 0.166 µM (active). Further, the GI50 in experiment [14] is 0.0791 µM (active).
As for `O=C(CSC1=NC(=O)C2(NN1)c1ccccc1-c1ccccc12)NC(=S)Nc1ccccc1`, the GI50 in [15] was > 10 µM (inactive); in experiment [1] it was > 10 µM (inactive); in experiment [2], > 10 µM (inactive); in experiment [3], > 10 µM (inactive); in experiment [4], > 10 µM (inactive); in experiment [16], 2.34 µM (inactive). For the same compound, the GI50 in experiment [6] was > 10 µM (inactive); in [7] it was > 10 µM (inactive); in experiment [8] it was > 10 µM (inactive); in [10], 9.04 µM (inactive); in experiment [12], > 10 µM (inactive); in experiment [13] it was > 10 µM (inactive). In experiment [14], the GI50 is > 10 µM (inactive).
Turning to `NC(=O)N/N=C1\CCCCc2ccccc21`, the GI50 in experiment [1], in experiment [2], in experiment [4], in [5], in experiment [16] and in experiment [6] was > 10 µM (inactive) each time. The GI50 in [7], in experiment [8], in experiment [10], in [11], in experiment [12] and in [14] was > 10 µM (inactive) throughout. Besides, the GI50 in experiment [17] is > 10 µM (inactive).
On to `Cc1nc2c(=S)n(C)ncc2[nH]1`, for which the GI50 in [15], in experiment [1], in experiment [2], in [3], in experiment [4] and in experiment [5] was > 100 µM (inactive) throughout. Besides, the GI50 in experiment [16], in experiment [7], in [8], in experiment [10], in experiment [11] and in experiment [13] was > 100 µM (inactive) in each case. The GI50 in experiment [14] and in [17] was > 100 µM (inactive) each time.
On to `CC1CCC(C(C)C)C(OC(=O)NCn2cc(-c3ccccc3)nn2)C1` (stereo not given), for which the GI50 is 41.2 µM (inactive) in experiment [1]; > 100 µM (inactive) in experiment [2]; > 100 µM (inactive) in experiment [3]; > 100 µM (inactive) in experiment [4]; > 100 µM (inactive) in experiment [6]; > 100 µM (inactive) in [7]. In addition, the GI50 is > 100 µM (inactive) in experiment [8]; > 100 µM (inactive) in experiment [10]; > 100 µM (inactive) in experiment [11]; > 100 µM (inactive) in experiment [12]; 25.6 µM (inactive) in experiment [13]; > 100 µM (inactive) in experiment [14]. The GI50 in [17] was > 100 µM (inactive).
Regarding `C[C@]12C(=O)OC[C@H](c3ccccc3)N1C(=O)N(Cc1ccccc1)[C@@H]2CO`, the GI50 in experiment [15], in experiment [1], in [2], in experiment [3], in [4] and in [5] was > 100 µM (inactive) each time. The GI50 in experiment [6] was > 100 µM (inactive); in experiment [7], > 100 µM (inactive); in experiment [8], > 100 µM (inactive); in experiment [9], > 100 µM (inactive); in [12] it was > 100 µM (inactive); in [13], 45.6 µM (inactive). Besides, the GI50 in [14] and in experiment [17] was > 100 µM (inactive) throughout.
As for `COc1nc(O)nc2c1C(c1ccc([N+](=O)[O-])cc1)c1c(OC)nc(O)nc1O2`, the GI50 in [15], in experiment [1], in experiment [2], in experiment [3], in [4] and in experiment [5] was > 100 µM (inactive) throughout. For the same compound, the GI50 in [6], in experiment [7], in [8], in experiment [9], in experiment [10] and in experiment [11] was > 100 µM (inactive) throughout. In addition, the GI50 in [14] and in experiment [17] was > 100 µM (inactive) in each case.
With `CC(C)(C)OC(=O)NC(CCCCNC(=O)CNC(=O)OCc1ccccc1)C(=O)NC(CCCCNC(=O)CNC(=O)OCc1ccccc1)C(=O)NC(CCCCNC(=O)CNC(=O)OCc1ccccc1)C(=O)NC(CCCCNC(=O)CNC(=O)OCc1ccccc1)C(=O)O` (stereo not given) (Boc-K([Gly-Cbz])K([Gly-Cbz])K([Gly-Cbz])K([Gly-Cbz])-OH; configuration not given here), the GI50 in [15], in experiment [1], in experiment [2], in experiment [3], in experiment [4] and in experiment [5] was > 100 µM (inactive) in each case. Also, the GI50 in experiment [16], in experiment [6], in experiment [7], in experiment [8], in [10] and in [11] was > 100 µM (inactive) in each case. Also, the GI50 in experiment [13], in [14] and in experiment [17] was > 100 µM (inactive) in each case.
`COc1ccc(N2C(=O)/C(=C\c3cccc(Oc4ccccc4)c3)S(=O)(=O)C2c2ccccc2)cc1` (stereo not given): the GI50 in [15] is 25.1 µM (inactive); in [1], 18.1 µM (inactive); in experiment [2] it was > 100 µM (inactive); in experiment [5], 28.1 µM (inactive); in experiment [16], 35.6 µM (inactive); in experiment [6], 38.3 µM (inactive). The GI50 in experiment [7] is 68.4 µM (inactive); in experiment [8] it was 73.6 µM (inactive); in experiment [11], 50.7 µM (inactive); in experiment [12], 42.2 µM (inactive); in experiment [14] it was 20.4 µM (inactive); in [17] it was 37.2 µM (inactive).

These data come from ChEMBL document CHEMBL1201862, “PubChem BioAssay data set” (2004).
